Common to all, as to type: physicochemical
Data set [1] can be described thus: Physical stability under pressure (tableting, XRPD). The settings on record: compressed under 5 kN, 10 kN and 20 kN. An excerpt: A certain amount of Form CSIII was compressed into tablets under 5 kN, 10 kN and 20 kN with suitable tableting die. Crystalline forms before and after tableting were checked by XRPD.
The next data set in a line: Bulk and tapped density. The settings on record: for Bulk density: about 500 mg powder in 5-mL cylinder; for Tapped density: tapped 1250 times. On the procedure: About 500 mg of powder were added into a 5-mL measuring cylinder and bulk volume was recorded. Then the powder was tapped for 1250 times by ZS-2E tap density tester to make it in the tightest state and the tapped volume was recorded. The bulk density and tapped density were calculated.

The nature of data set [2]: Physical stability upon humidity change (DVS, XRPD). The settings on record: cycle of 0%-95%-0%RH at 25° C. Here is the method: Dynamic Vapor Sorption (DVS) is measured via an SMS (Surface Measurement Systems Ltd.) intrinsic DVS instrument. Its control software is DVS- Intrinsic control software, and its analysis software is DVS-Intrinsic Analysis software. Typical Parameters for DVS test are as follows: • Temperature: 25° C. • Gas and flow rate: N2, 200 mL/min • RH range: 0% RH to 95% RH
Dynamic vapor sorption (DVS) was applied to test the stability of Form CSIII. A certain amount of Form CSIII was tested in a cycle of 0%-95%-0%RH at 25° C.

A short description of data set [3]: Stability of Form CSIII on storage (XRPD, HPLC purity). The settings on record: for Crystalline form after storage: XRPD. On the procedure:
Approximately 5 mg of Form CSIII samples was stored under different conditions of 25° C./60%RH, 40° C./75%RH, and 60° C./75%RH. Crystalline form and chemical purity were checked by XRPD and HPLC, respectively.

Data set [4] is described as follows: Physical stability upon grinding (XRPD). The settings on record: ground manually 5 minutes in a mortar. Here is the method: Form CSIII sample was grounded manually for 5 minutes in a mortar. Crystalline forms before and after grinding were checked by XRPD.
Data set [5] can be described thus: Kinetic solubility in SGF, FeSSIF and FaSSIF (HPLC). On the procedure: When solubility test is used to predict the in vivo performance of a drug, it is critical to simulate in vivo conditions as closely as possible. Simulated gastric fluid (SGF), Fed-state simulated intestinal fluid (FeSSIF) and Fasted-state simulated intestinal fluid (FaSSIF) can be used to simulate the conditions in vivo and predict the effects of eating, thus solubilities in these media are closer to those in vivo.
15-20 mg of Form CSIII of the present disclosure and 15-20 mg of Form A were suspended into 2.5 mL of SGF, 2.5 mL of FeSSIF, and 2.5 mL of FaSSIF to get suspensions. After equilibrated for 1 h and 4 h, concentrations of these solutions were measured by HPLC.

Setting [6] is: applicant's characterisation of repeated prior-art form.

`[2H]C([2H])([2H])NC(=O)c1nnc(NC(=O)C2CC2)cc1Nc1cccc(-c2ncn(C)n2)c1OC` [Form CSIII, 6-(cyclopropanecarboxamido)-4-((2-methoxy-3-(1-methyl-1H-1,2,4-triazol-3-yl)phenyl)amino)-N-(methyl-d3) pyridazine-3-carboxamide]: in data set [1], the “Crystalline state after tableting” value is given as “does not change”. In the data set “Bulk and tapped density”, this compound yielded a Bulk density of 0.4276 g/mL. In “Bulk and tapped density”, this compound returned a Tapped density of 0.5987 g/mL. Further, the “Crystalline state after DVS test” value in data set [2] is on record as “does not change”. For the same compound, the “Time stable on storage” value in data set [3] (25° C./60% RH) is given as “at least 3 months”; in data set [3] (40° C./75% RH), “at least 3 months”; in data set [3] (60° C./75% RH) it was “at least one month”. The “Crystalline form after storage” value in data set [3] (25° C./60%RH (open), 3 months) was “Form CSIII”; in data set [3] (25° C./60%RH (sealed), 3 months), “Form CSIII”; in data set [3] (40° C./75%RH (open), 3 months), “Form CSIII”; in data set [3] (40° C./75%RH (sealed), 3 months), “Form CSIII”; in data set [3] (60° C./75%RH (open), one month), “Form CSIII”; in data set [3] (60° C./75%RH (sealed), one month), “Form CSIII”. Besides, the “Change in chemical purity during storage” value in data set [3] (60° C./75% RH, one month, open condition, HPLC) was 0.07%. Also, the “Crystalline state after grinding” value in data set [4] was “does not change”. The Concentration in data set [5] (FaSSIF, equilibrated 1 hour) turned out to be 49 µg/mL; in data set [5] (FaSSIF, equilibrated 4 hours), 55.7 µg/mL; in data set [5] (FeSSIF, equilibrated 1 hour), 193.6 µg/mL; in data set [5] (FeSSIF, equilibrated 4 hours) it was 179.3 µg/mL; in data set [5] (SGF, equilibrated 1 hour) it was 1582.4 µg/mL; in data set [5] (SGF, equilibrated 4 hours), 1296.8 µg/mL. Moreover, the “Solubility relative to that of Form A” value in data set [5] (FaSSIF, equilibrated 1 hour) stood at 3.6 times; in data set [5] (FaSSIF, equilibrated 4 hours) it was 4.1 times.
On to `[2H]C([2H])([2H])NC(=O)c1nnc(NC(=O)C2CC2)cc1Nc1cccc(-c2ncn(C)n2)c1OC` [Form A, 6-(cyclopropanecarboxamido)-4-((2-methoxy-3-(1-methyl-1H-1,2,4-triazol-3-yl)phenyl)amino)-N-(methyl-d3) pyridazine-3-carboxamide, reference compound], for which, in the data set “Bulk and tapped density”, the Bulk density is listed as 0.3899 g/mL. In the data set “Bulk and tapped density” (setting [6]), the “Density (in words)” value is given as “low density”. Besides, the Tapped density in “Bulk and tapped density” is on record as 0.5199 g/mL. Besides, the Concentration in data set [5] (FaSSIF, equilibrated 1 hour) stood at 13.5 µg/mL; in data set [5] (FaSSIF, equilibrated 4 hours), 13.6 µg/mL; in data set [5] (FeSSIF, equilibrated 1 hour), 82.3 µg/mL; in data set [5] (FeSSIF, equilibrated 4 hours) it was 68.8 µg/mL; in data set [5] (SGF, equilibrated 1 hour), 1114.1 µg/mL; in data set [5] (SGF, equilibrated 4 hours), 617.2 µg/mL. Besides, the “Solubility (in words)” value in data set [5] (setting [6]) is on record as “poor solubility”.
